# Active and inactive are the calls of the source. No cut-off for these calls is given here.
# Tests used:
# [1] = test system: CEM-SS; assay: Concentration that provides 50% protection in the CEM-SS cells infected with HIV-2 strain; IA means inactive; type: functional, cell-based; conditions: Homo sapiens
# [2] = target: Human immunodeficiency virus type 1 reverse transcriptase (Human immunodeficiency virus 1, UniProt Q72547); assay: Inhibitory activity against HIV-1 reverse transcriptase
# [3] = test system: MT4; assay: Concentration that provides 50% protection in the MT-4 cells infected with AZT-resistant HIV-1 6R strain; type: functional, cell-based; conditions: Homo sapiens
# [4] = test system: MT4; assay: Concentration that provides 50% protection in the MT-4 cells infected with AZT-resistant HIV-1 6S strain; type: functional, cell-based; conditions: Homo sapiens
# [5] = test system: MT4; assay: Concentration that provides 50% protection in the MT-4 cells infected with HIV-1 IIIBstrain; type: functional, cell-based; conditions: Homo sapiens
# [6] = test system: MT4; assay: Concentration that provides 50% protection in the MT-4 cells infected with nevirapine-resistant HIV-1 N119 strain; type: functional, cell-based; conditions: Homo sapiens
# [7] = test system: MO/Mphi; assay: Concentration that provides 50% protection in the MO/Mphi cells infected with HIV-1 ADA strain; type: functional, cell-based; conditions: Homo sapiens
# [8] = test system: MO/Mphi; assay: Concentration that provides 50% protection in the MO/Mphi cells infected with HIV-1 Ba-L strain; type: functional, cell-based; conditions: Homo sapiens
# [9] = test system: MO/Mphi; assay: Concentration that results in 50% death of MO/Mphi cells infected with HIV-1 ADA strain; no toxicity was observed; type: functional, cell-based; conditions: Homo sapiens
# [10] = test system: MO/Mphi; assay: Concentration that results in 50% death of MO/Mphi cells infected with HIV-1 Ba-L strain; no toxicity was observed; type: functional, cell-based; conditions: Homo sapiens
# [11] = test system: MT4; assay: Concentration that provides 50% protection in the MT-4 cells infected with pyridinone-resistant HIV-1 A17 strain; type: functional, cell-based; conditions: Homo sapiens
# [12] = test system: MT4; assay: Concentration that provides 50% protection in the MT-4 cells infected with SIV strain; type: functional, cell-based; conditions: Homo sapiens
# [13] = test system: MT4; assay: Concentration that results in 50% death of MT-4 cells infected with AZT resistant HIV-1 6R strain; no toxicity was observed; type: functional, cell-based; conditions: Homo sapiens
# [14] = test system: MT4; assay: Concentration that results in 50% death of MT-4 cells infected with HIV-1 6S strain; no toxicity was observed; type: functional, cell-based; conditions: Homo sapiens
# [15] = test system: MT4; assay: Concentration that results in 50% death of MT-4 cells infected with HIV-1 IIIB strain; no toxicity was observed; type: functional, cell-based; conditions: Homo sapiens
# [16] = test system: MT4; assay: Concentration that results in 50% death of MT-4 cells infected with Nevirapine resistant HIV-1 N119 strain; no toxicity was observed; type: functional, cell-based; conditions: Homo sapiens
# [17] = test system: MT4; assay: Concentration that results in 50% death of MT-4 cells infected with SIV strain; no toxicity was observed; type: functional, cell-based; conditions: Homo sapiens
# [18] = test system: MT4; assay: Concentration that results in 50% death of MT-4 cells infected with pyridinone-resistant HIV-1 A17 strain; no toxicity was observed; type: functional, cell-based; conditions: Homo sapiens
# [19] = test system: PBL; assay: Concentration that provides 50% protection in the PBL cells infected with HIV-1 BAKI strain; type: functional, cell-based; conditions: Homo sapiens
# [20] = test system: PBL; assay: Concentration that provides 50% protection in the PBL cells infected with HIV-1 VIHU strain; type: functional, cell-based; conditions: Homo sapiens
# [21] = test system: PBL; assay: Concentration that provides 50% protection in the PBL cells infected with HIV-1 WEJO strain; type: functional, cell-based; conditions: Homo sapiens
# [22] = test system: PBL; assay: Concentration that results in 50% death of PBL cells infected with HIV-1 BAKI strain; no toxicity was observed; type: functional, cell-based; conditions: Homo sapiens
# [23] = test system: PBL; assay: Concentration that results in 50% death of PBL cells infected with HIV-1 VIHU strain; no toxicity was observed; type: functional, cell-based; conditions: Homo sapiens
# [24] = test system: PBL; assay: Concentration that results in 50% death of PBL cells infected with HIV-1 WEJO strain; no toxicity was observed; type: functional, cell-based; conditions: Homo sapiens
compound,measurement,setting,value
CCCCCC=C(c1cc(Br)c(OC)c(C(=O)OC)c1)c1cc(Br)c(OC)c(C(=O)OC)c1,IA,[1],inactive
same,IC50,[2],0.38 µM
same,EC50,[3],6 µM
same,EC50,[4],0.56 µM
same,EC50,[5],16 µM
same,EC50,[6],151 µM
same,EC50,[7],1.85 µM
same,EC50,[8],5.5 µM
same,IC50,[9],> 200 µM
same,IC50,[10],> 200 µM
same,EC50,[11],14 µM
same,EC50,[12],136 µM
same,IC50,[13],> 200 µM
same,IC50,[14],> 200 µM
same,IC50,[15],> 200 µM
same,IC50,[16],> 200 µM
same,IC50,[17],> 200 µM
same,IC50,[18],> 200 µM
same,EC50,[19],15.2 µM
same,EC50,[20],24.9 µM
same,EC50,[21],10.2 µM
same,IC50,[22],> 100 µM
same,IC50,[23],> 100 µM
same,IC50,[24],> 100 µM
